Measured values from paper PMC5125615 (Biochemistry, 2015).
Numbering of substitutions follows the chain as printed.

Assays:
[1] = molecular target: T1, RsTSPO (Cereibacter sphaeroides, UniProt Q9RFC8, A136L/A138F/T137A); test: fluorescence quenching; format: binding
T1 sequence (Q9RFC8 1-158 A136L/T137A/A138F): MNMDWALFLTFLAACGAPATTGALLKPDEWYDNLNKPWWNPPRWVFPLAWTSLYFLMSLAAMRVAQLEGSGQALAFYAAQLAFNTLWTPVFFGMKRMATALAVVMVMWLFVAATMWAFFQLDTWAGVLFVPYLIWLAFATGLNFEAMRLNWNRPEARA

[2] = molecular target: T2, RsTSPO (Cereibacter sphaeroides, UniProt Q9RFC8); test: fluorescence quenching; format: binding; details: affinity value, symbol not given
T2 sequence (Q9RFC8 1-158): T1 sequence (Q9RFC8 1-158 A136L/T137A/A138F) with L136A, A137T, F138A

[3] = molecular target: T2, RsTSPO; test: binding to purified protein
[4] = molecular target: T1, RsTSPO; test: binding to purified protein
[5] = molecular target: T2, RsTSPO; test: binding to purified protein; details: affinity value, symbol not given
[6] = molecular target: T1, RsTSPO; test: binding to purified protein; remark: listed apart in the source

SMILES: CCC(C)N(C)C(=O)c1cc2ccccc2c(-c2ccccc2Cl)n1 (stereo not drawn) [PK11195]
- Kd [1]: 15 ± 4 µM
- Kd [2]: 10 ± 1 µM

SMILES: CC(C)CCC[C@@H](C)[C@H]1CC[C@H]2[C@@H]3CC=C4C[C@@H](O)CC[C@]4(C)[C@H]3CC[C@]12C [cholesterol]
- Kd [3]: ~80 µM
- Kd [4]: ~0.02 µM

SMILES: C=CC1=C(C)c2cc3[nH]c(cc4nc(cc5[nH]c(cc1n2)c(C)c5CCC(=O)O)C(CCC(=O)O)=C4C)c(C)c3C=C [protoporphyrin IX]
- Kd [5]: 0.31 ± 0.01 µM
- Kd [6]: 1.1 ± 0.1 µM
